Measurements: paper PMC8136953 (Veterinary Medicine and Science, 2020)
Like-named read-outs stand apart in the source and are kept apart here.

Tests used:
[1] = Minimum plasma concentrations of FLO during multiple oral administrations; format: in vivo; conditions: European seabass (Dicentrarchus labrax), 10 mg/kg/day, multiple oral 10 mg/kg per day for seven consecutive days, 24°C, read-out: Minimum plasma concentrations at the 24 hr sampling intervals
Description: The extraction step was repeated twice.
(§1) The flow rate was 1.0 ml/min.
Results are presented as means ± SD (standard deviation of the mean). […] The SPSS version 25.0 (International Business Machines Corporation, Armonk, NY, USA) was used for the statistical analysis.

[2] = Residue depletion in muscle plus skin and withdrawal times after multiple oral dosing; format: in vivo, European seabass Dicentrarchus labrax; conditions: 10 mg kg^−1 day^−1 for 7 days, 24°C, mean ± SD
Description: Briefly, muscle plus skin samples were sheared, and subsequently 2 g of ground sample was weighed into a 50 ml centrifuge tube. Ten ml of ethyl acetate were added and the mixture was homogenized with an IKA Ultra‐Turrax T25 Disperser (IKA®‐Werke GmbH & Co. KG, Staufen, Germany) for 30 s at […]. The mixture was agitated for 20 min and then was centrifuged at 3,500 rpm/min for 10 min at 5°C. […] The combined extract was then evaporated to dryness at 45°C under nitrogen stream. Two milliliter of hexane and 1 ml of mobile phase solution were added in the residue. After gentle agitation for 5 min, the mixture was centrifuged (2,150 g for 5 min). The upper layer (hexane) was discarded and the de‐fatting step was repeated. The bottom layer (1 ml) was filtered (0.22 μm nylon filter) and then was subjected to HPLC analysis.
as §1
Withdrawal period was determined at the time when the upper one‐sided 95% tolerance limit for the residue was below the MRL with 95% confidence.

[3] = cited from earlier work; for Primary route of excretion of FLO and its metabolites: single oral dose 10 mg/kg fish, ref Feng et al. (2008)
[4] = cited from earlier work
[5] = design: method as in Kosoff et al. (2009); conditions: 0‰, MO, 10 × 10d mg/kg fish, 49–52 g, 20–25 °C; ref Kosoff et al. (2009); cited from earlier work
[6] = design: method as in Huang et al. (2019); conditions: 0‰, 50 g, ref Huang et al. (2019), cited from earlier work; for C max / T max / t 1/2b: SO‐FA, 25 mg/kg fish
[7] = design: method as in Yanong et al. (2005); conditions: 0‰, SO, 50 mg/kg fish, 144 g, 23–25 °C; ref Yanong et al. (2005); cited from earlier work
[8] = 0‰, cited from earlier work; for WT: MO, 13 °C
[9] = cited from earlier work; remark: listed apart in the source
[10] = design: method as in Kverme et al. (2019); conditions: 34‰, SO‐FA, 10 mg/kg fish, 114 g, 12 °C; ref Kverme et al. (2019); cited from earlier work
[11] = 28‰, MO, 10 × 10d mg/kg fish, 150 g, 27 °C; ref Di Salvo et al. (2013); cited from earlier work
[12] = 0‰, SO‐FA, 10 mg/kg fish, 98 g, 22 °C, ref Feng and Jia (2009)
[13] = 0‰, MO, 10 × 10d mg/kg fish, 444–474 g, 25–30 °C, ref Kosoff et al. (2009)
[14] = 0‰, MO, 15 × 10d mg/kg fish, 100–500 g, 25 °C, ref Bowser et al. (2009)
[15] = 0‰, SO‐FA, 15 mg/kg fish, 500–700 g, 24 °C, ref Rairat et al. (2019)
[16] = 0‰, SO‐FA, 15 mg/kg fish, 500–700 g, 28 °C, ref Rairat et al. (2019)
[17] = 0‰, SO‐FA, 15 mg/kg fish, 500–700 g, 28 °C, ref Rairat et al. (2020)
[18] = 0‰, SO‐FA, 15 mg/kg fish, 500–700 g, 32 °C, ref Rairat et al. (2019)
[19] = 2‰, SO‐FA, 15 mg/kg fish, 500–700 g, 28 °C, ref Rairat et al. (2020)
[20] = 4‰, SO‐FA, 15 mg/kg fish, 500–700 g, 28 °C, ref Rairat et al. (2020)
[21] = 8‰, SO‐FA, 15 mg/kg fish, 500–700 g, 28 °C, ref Rairat et al. (2020)
[22] = 15‰, SO‐FA, 15 mg/kg fish, 500–700 g, 28 °C, ref Rairat et al. (2020)
[23] = SO, 10 mg/kg fish, 140 g, 14–15 °C, ref Pourmolaie et al. (2015)
[24] = 30‰, SO‐FA, 10 mg/kg fish, 194 g, 11 °C, ref Martinsen et al. (1993)

For `CS(=O)(=O)c1ccc([C@@H](O)[C@@H](CF)NC(=O)C(Cl)Cl)cc1` [FLO, florfenicol], the concentration at 24 hr [1] was 220 to 550 ng/mL, the “Muscle plus skin FLO concentration” value ([2]; 144 hours after last dosing) was “below LOQ” and the concentration at 24 hours after last dosing ([2]; European seabass (Dicentrarchus labrax), in vivo, 24 hours after last dosing) was 800 ± 1740 ng/g. The concentration at 48 hours after last dosing ([2]; European seabass (Dicentrarchus labrax), in vivo, 48 hours after last dosing) was 250 ± 640 ng/g, the concentration at 72 hours after last dosing ([2]; European seabass (Dicentrarchus labrax), in vivo, 72 hours after last dosing) was 40 ± 20 ng/g and the concentration at 96 hours after last dosing ([2]; European seabass (Dicentrarchus labrax), in vivo, 96 hours after last dosing) was 40 ± 10 ng/g. The concentration at 144 hours after last dosing ([2]; European seabass (Dicentrarchus labrax), in vivo, 144 hours after last dosing) was 30 ± 10 ng/g, the C max [3, 12] was 4500 ng/mL and the T max [3, 12] was 12 h. The “t 1/2b” value [3, 12] was 10.0 h, the “Primary route of excretion of FLO and its metabolites” value ([3]; freshwater hybrid tilapia) was “the bile duct” and the “Primary route of excretion of FLO and its metabolites” value ([3]; seawater tilapia) was “mostly the gills”. The C max [4, 13] was 6500 to 6700 ng/mL, the WT [4, 13] was 98 to 146 h and the C max [4, 14] was 7100 to 15200 ng/mL. For the same compound, the WT [4, 14] was greater than 288 h, the “t 1/2b” value [4, 14] was 1.2 to 2.2 h and the C max [4, 15] was 23100 ng/mL. For the same compound, the T max [4, 15] was 1.4 h, the “t 1/2b” value [4, 15] was 12.4 h and the C max [4, 16] was 16700 ng/mL. For the same compound, the T max [4, 16] was 1.2 h, the “t 1/2b” value [4, 16] was 9.5 h and the C max [4, 17] was 24000 ng/mL. The T max [4, 17] was 0.8 h, the “t 1/2b” value [4, 17] was 11.3 h and the C max [4, 18] was 16700 ng/mL. For the same compound, the T max [4, 18] was 0.8 h, the “t 1/2b” value [4, 18] was 7.3 h and the “t 1/2b” value ([4]; 2‰, SO‐FA, 15 mg/kg fish, 500–700 g, 28 °C, ref Rairat et al. (2020), 15 mg/kg) was 10.7 h. For the same compound, the C max [4, 19] was 21600 ng/mL, the T max [4, 19] was 0.9 h and the C max [4, 20] was 21800 ng/mL. The T max [4, 20] was 0.9 h, the “t 1/2b” value [4, 20] was 10.6 h and the C max [4, 21] was 24400 ng/mL. For the same compound, the T max [4, 21] was 0.9 h, the “t 1/2b” value [4, 21] was 10.2 h and the “t 1/2b” value ([4]; 15‰, SO‐FA, 15 mg/kg fish, 500–700 g, 28 °C, ref Rairat et al. (2020), 15 mg/kg) was 8.9 h. For the same compound, the C max [4, 22] was 22700 ng/mL, the T max [4, 22] was 1.0 h and the C max [5] was 9200 to 15100 ng/mL. The WT [5] was 232 to 302 h, the WT ([6]; MO‐FA, 25 × 3d mg/kg fish, 28 °C) was 198 h and the C max ([6]; 18 °C) was 5900 ng/mL. For the same compound, the T max ([6]; 18 °C) was 6.0 h, the “t 1/2b” value ([6]; 18 °C) was 26.8 h and the C max ([6]; 28 °C) was 6200 ng/mL. For the same compound, the T max ([6]; 28 °C) was 2.8 h, the “t 1/2b” value ([6]; 28 °C) was 16.1 h and the C max [7] was 12300 ng/mL. The T max [7] was 3 h, the WT ([8]; 10 × 10d mg/kg fish, 220 g, ref Di Salvo et al. (2013)) was 108 h and the WT ([8]; 15–20 × 10d mg/kg fish, 126–617 g, ref Meinertz et al. (2014)) was 360 h. For the same compound, the C max [8, 23] was 6100 ng/mL, the T max [8, 23] was 9 h and the C max [9, 24] was 4000 ng/mL. For the same compound, the T max [9, 24] was 10.3 h, the C max ([9]; 35‰, MO, 10 × 10d mg/kg fish, 497 g, 10 °C, ref Horsberg et al. (1996)) was 8560 ng/mL and the C max ([9]; 35‰, SO‐FA, 10 mg/kg fish, 460 g, 10 °C, ref Horsberg et al. (1996)) was 9100 ng/mL. For the same compound, the C max [10] was 3600 ng/mL, the T max [10] was 21.2 h and the “t 1/2b” value [10] was 21.2 h. The WT [11] was 95 h.
